Test results taken from paper PMC11915801, “Evolutionary trajectory of bacterial resistance to antibiotics and antimicrobial peptides in Escherichia coli” (mSystems, 2025).
≈ marks a conversion by molar mass, not a printed value. Where two headings read alike, the source gives them in different places. Where a SMILES comes first, the peptide text is derived from it.

Assays:
[1] = system: G. mellonella larvae infected with chloramphenicol-resistant strains; assay: G. mellonella infection protection model, chloramphenicol-resistant strain; type: in vivo, Galleria mellonella; details: monotreatment 30 mg/kg at 1 h post-infection, 5 days, n = 8 per group
Procedure: (§1) The bacterial culture was uniformly diluted with saline to an OD600 of 0.35. G. mellonella larvae (n = 8 per group) were randomly divided, and sterile saline was used as the blank control. In the virulence assessment, 10 µL of bacterial solution was inoculated into each larva using a Hamilton syringe. The survival of larvae was observed and recorded daily for 7 days.
(§2) For the larval infection protection model, larvae were infected with wild-type and antibiotic-resistant strains and treated with a dose of 30 mg/kg of drugs at the left foot of the last gastropod at 1 h post-infection, and the survival was monitored for 5 days.

[2] = system: G. mellonella larvae infected by the original MG1655; assay: G. mellonella infection protection model, original MG1655; type: in vivo, Galleria mellonella; details: monotreatment 30 mg/kg at 1 h post-infection, 5 days, n = 8 per group
Procedure: as §1, §2

[3] = system: chloramphenicol-resistant strains (CHL80); assay: Disk diffusion experiment, chloramphenicol-resistant strains; type: cell-based, Escherichia coli; details: drug 2,048 µg/mL, LB agar, 37°C 24 h
Procedure: (§3) Fifty microliters of bacterial cultures was spread evenly onto LB agar. A prepared circular sterile filter paper was pasted on the center of the petri dish, and the corresponding drugs with a concentration of 2,048 µg/mL were dropped on the center of the circular filter paper. The petri dishes were placed at 37°C for 24 h, and the diameters of the sterile growth circles were measured.

[4] = system: MG1655 icd-i; assay: MIC, CRISPRi icd-repressed MG1655; type: cell-based; details: Escherichia coli, broth microdilution, CRISPRi repression of icd, read-out: MIC values of MG1655 with gene silencing, icd-i
From the text: (§4) The broth microdilution method was used to measure the MIC values of antibiotics and peptides according to the Clinical and Laboratory Standards Institute guidelines. The MIC value is defined as the lowest drug concentration without visible bacteria.
(§5) The engineered CRISPR/CRISPR-associated protein 9 (Cas9) system was used to repress the dnaA, deoB, icd, and thyA genes. Briefly, spacer 1 (5-[…]-3), spacer 2 (5-[…]-3), spacer 3 (5-[…]-3), and spacer 4 (5-[…]-3) were synthesized, and then, the construction of the targeting plasmid psgRNA was performed in a total volume of 25 µL. Subsequently, 1.5 µL of each newly constructed psgRNA and dCas9 was simultaneously electroporated into the competent cells of MG1655. MG1655 containing unmodified psgRNA and dCas9 was used as a control. Anhydrotetracycline at a final concentration of 0.5 µg/mL was used to induce gene repression. RT-qPCR was used to verify the expression of the genes.

[5] = system: MG1655 thyA-i; assay: MIC, CRISPRi thyA-repressed MG1655; type: cell-based, Escherichia coli; details: for MIC: Escherichia coli, MG1655, broth microdilution, CRISPRi repression of thyA, read-out: MIC values of MG1655 with gene silencing, thyA-i
From the text: as §4, §5

[6] = system: MG1655 WT; assay: microbe, parasite or virus in culture; type: cell-based; details: Escherichia coli, MG1655, read-out: MIC values of MG1655 with gene silencing, WT
From the text: as §4, §5

[7] = system: chloramphenicol-resistant bacteria (CHL80); details: 15-min exposure, tenfold the MIC of MG1655, 1 × 10^6 CFU log-phase, CFU counting
Procedure: (§6) Bacteria were cultured at 37°C and 200 rpm to the logarithmic phase (1 × 10^6 CFU). The corresponding drugs, with a final concentration of tenfold the MIC of MG1655, were added. At 15, 30, 60, 90, and 120 min, 50 µL of the mixture was serially diluted 10-fold and dropped on an LB agar plate for CFU counting.

[8] = system: original MG1655; details: tenfold the MIC of MG1655, 15-120 min, CFU counting
Procedure: as §6

[9] = system: trimethoprim-resistant strains (TMP30); assay: Disk diffusion experiment, trimethoprim-resistant strains; type: cell-based, Escherichia coli; details: drug 2,048 µg/mL, LB agar, 37°C 24 h
Procedure: as §3

[10] = system: AMP120 (evolved MG1655); assay: microbe, parasite or virus in culture; type: cell-based, Escherichia coli; details: Escherichia coli, MG1655; broth microdilution; ampicillin-evolved strain
From the text: (§7) To ensure the stable resistance evolution and inheritance of MG1655 under different drugs, we randomly selected three monoclonals from the evolved strains. The final antibiotic-evolved strains were designated as AMP120, AZI120, CHL80, CIP120, DOX120, KAN80, NIT70, and TMP30, while the final AMP-evolved strains were named COL120, Ind120, Omi120, Pex120, PGLA120, Pleu120, R8120, SAAP120, LI120, and SLAP120.
as §4

[11] = system: AZI120 (evolved MG1655); assay: microbe, parasite or virus in culture; type: cell-based, Escherichia coli; details: Escherichia coli, MG1655; broth microdilution; azithromycin-evolved strain
From the text: as §7, §4

[12] = system: KAN80 (evolved MG1655); assay: microbe, parasite or virus in culture; type: cell-based, Escherichia coli; details: Escherichia coli, MG1655; broth microdilution; kanamycin-evolved strain
From the text: as §7, §4

[13] = system: COL120 (evolved MG1655); assay: microbe, parasite or virus in culture; type: cell-based, Escherichia coli; details: Escherichia coli, MG1655; broth microdilution; colistin-evolved strain
From the text: as §7, §4

[14] = system: CHL80 (evolved MG1655); assay: microbe, parasite or virus in culture; type: cell-based, Escherichia coli; details: Escherichia coli, MG1655; broth microdilution; chloramphenicol-evolved strain
From the text: as §7, §4

[15] = system: NIT70 (evolved MG1655); assay: microbe, parasite or virus in culture; type: cell-based, Escherichia coli; details: Escherichia coli, MG1655; broth microdilution; nitrofurantoin-evolved strain
From the text: as §7, §4

[16] = system: CIP120 (evolved MG1655); assay: microbe, parasite or virus in culture; type: cell-based, Escherichia coli; details: Escherichia coli; broth microdilution; ciprofloxacin-evolved strain
From the text: as §7, §4

[17] = system: DOX120 (evolved MG1655); assay: microbe, parasite or virus in culture; type: cell-based, Escherichia coli; details: Escherichia coli, MG1655; broth microdilution; doxycycline-evolved strain
From the text: as §7, §4

[18] = system: TMP30 (evolved MG1655); assay: microbe, parasite or virus in culture; type: cell-based, Escherichia coli; details: for MIC: Escherichia coli, MG1655, broth microdilution, trimethoprim-evolved strain
From the text: as §7, §4

[19] = system: MG1655 deoB-i; assay: MIC, CRISPRi deoB-repressed MG1655; type: cell-based; details: Escherichia coli, broth microdilution, CRISPRi repression of deoB, read-out: MIC values of MG1655 with gene silencing, deoB-i
From the text: as §4, §5

[20] = system: MG1655 dnaA-i; assay: MIC, CRISPRi dnaA-repressed MG1655; type: cell-based; details: Escherichia coli, broth microdilution, CRISPRi repression of dnaA, anhydrotetracycline 0.5 µg/mL, read-out: MIC values of MG1655 with gene silencing, dnaA-i
From the text: as §4, §5

[21] = system: E. coli K-12 MG1655; assay: microbe, parasite or virus in culture; type: cell-based, Escherichia coli; details: Escherichia coli
Procedure: as §4
Eight antibiotics and ten AMPs at the sub-inhibitory concentration were prepared. A 300-µL system, including 260 µL of MH broth, 30 µL of prepared drug, and 10 µL of bacterial culture, was used for resistance passages. After 12 h of incubation at 37℃ and 200 rpm, 10 µL of the above bacterial culture was added into the new sterile drug-containing broth. MIC values of bacterial culture were determined. The drug concentration was adjusted according to the MIC value change until the end of the 120 passages.

[22] = system: mice infected with MG1655; details: 5.0 × 10^8 CFU i.p.; trimethoprim 60 mg/kg i.p. 1 h after infection; organs at 48 h; n = 6
Procedure: Female BALB/c mice aged 6 to 8 weeks were randomly divided into four groups with six replicates for each group. Of bacterial suspension, 5.0 × 10^8 CFU was intraperitoneally injected to mice for 1 h, followed by a second intraperitoneal injection of trimethoprim (60 mg/kg) or pexiganan (10 mg/kg) or a combination of trimethoprim and pexiganan (30 + 5 mg/kg). The PBS injection group was used as a control. After 48 h, the liver, spleen, and kidneys of the mice were aseptically removed for CFU measurement.

[23] = MG1655, 12 h, read-out: MIC of MG1655 under the pressure of the same drug, generation 10
[24] = MG1655, read-out: MIC of MG1655 under the pressure of the same drug, generation primary
[25] = MG1655, as E2, generation 20, read-out: MIC of MG1655 under the pressure of the same drug, generation 20
[26] = MG1655, as E2, generation 30, read-out: MIC of MG1655 under the pressure of the same drug, generation 30

SMILES | MIC [4] [µg/mL] | MIC [5] [µg/mL] | MIC [6] [µg/mL] | MIC [10] [µg/mL] | MIC [11] [µg/mL] | MIC [12] [µg/mL] | MIC [13] [µg/mL] | MIC [14] [µg/mL] | MIC [15] [µg/mL] | MIC [16] [µg/mL] | MIC [17] [µg/mL] | MIC [18] [µg/mL] | MIC [19] [µg/mL] | MIC [20] [µg/mL] | MIC [21, 23] [µg/mL] | MIC [21, 24] [µg/mL] | MIC [21, 25] [µg/mL] | MIC [21, 26] [µg/mL] | other results
CC[C@H](C)[C@H](NC(=O)[C@H](CCCNC(=N)N)NC(=O)[C@H](CS)NC(=O)[C@H](CC(C)C)NC(=O)[C@H](CCCCN)NC(=O)[C@H](CCCCN)NC(=O)[C@H](CC(C)C)NC(=O)[C@@H](NC(=O)[C@H](CCCNC(=N)N)NC(=O)[C@H](CS)NC(=O)[C@H](CC(C)C)NC(=O)[C@H](CCCCN)NC(=O)[C@H](CCCCN)NC(=O)[C@@H](N)CC(C)C)[C@@H](C)CC)C(=O)O [LI, LI14] (H-LKKLCRILKKLCRI-OH; N-terminus and C-terminus assumed) |  |  |  |  |  |  |  |  |  |  |  |  |  |  |  |  |  |  | survival rate of larvae infected with chloramphenicol-resistant strains [1]: 62.5%; survival of larvae infected by the original MG1655 [2]: all larvae infected by the original MG1655 died; inhibition halo on chloramphenicol-resistant strains (in words) [3]: noticeable inhibitory effect
O=C1CN(/N=C/c2ccc([N+](=O)[O-])o2)C(=O)N1 [NIT, Nitrofurantoin] | 16 (≈ 67.2 µM) | 8 (≈ 33.6 µM) | 16 (≈ 67.2 µM) | 16 (≈ 67.2 µM) | 16 (≈ 67.2 µM) | 8 (≈ 33.6 µM) | 8 (≈ 33.6 µM) | 4 (≈ 16.8 µM) | 512 (≈ 2150 µM) | 16 (≈ 67.2 µM) | 16 (≈ 67.2 µM) | 4 (≈ 16.8 µM) | 16 (≈ 67.2 µM) | 16 (≈ 67.2 µM) | 16 | 16 | 16 | 64 | killing of chloramphenicol-resistant bacteria (CFU) [7]: completely eradicated; CFU reduction of original MG1655 [8]: decreased by less than one-log; inhibition halo on trimethoprim-resistant strains (in words) [9]: significant inhibitory effect; collateral sensitivity of TMP30 (fold change of MIC vs wild-type MG1655) ([18]; MIC of TMP30 compared with MG1655): exceeding fourfold; MIC ([21]; MG1655, as E2, generation 40, read-out: MIC of MG1655 under the pressure of the same drug, generation 40): 64 µg/mL; MIC ([21]; MG1655, as E2, generation 50, read-out: MIC of MG1655 under the pressure of the same drug, generation 50): 128 µg/mL; MIC ([21]; MG1655, as E2, generation 60, read-out: MIC of MG1655 under the pressure of the same drug, generation 60): 256 µg/mL; MIC ([21]; MG1655, as E2, generation 70, read-out: MIC of MG1655 under the pressure of the same drug, generation 70): 512 µg/mL
COc1cc(Cc2cnc(N)nc2N)cc(OC)c1OC [TMP, Trimethoprim] | 128 (≈ 441 µM) | 256 (≈ 882 µM) | 64 (≈ 220 µM) | 128 (≈ 441 µM) | 64 (≈ 220 µM) | 128 (≈ 441 µM) | 128 (≈ 441 µM) | 128 (≈ 441 µM) | 128 (≈ 441 µM) | 128 (≈ 441 µM) | 128 (≈ 441 µM) | 512 (≈ 1760 µM) | 128 (≈ 441 µM) | 64 (≈ 220 µM) | 128 | 64 | 128 | 512 | increase in MIC in thyA-i strains vs original MG1655 ([5]; CRISPRi thyA repression): four-fold increase in MIC; bacterial loads in the liver, spleen, and kidneys of mice infected with MG1655 [22]: decreased significantly
